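Step 1: Grow cells in 96-well plates. Step 2: Expose to compound for 48 hours at 5 concentrations. Step 3: Interpolate endpoints linearly; if unreached, use highest concentration. TGI: total growth inhibition.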
Assays:
Test in all cases: NCI tumour cell line growth inhibition, 48 h
A498 renal = system: A498 renal
K-562 leukemia = system: K-562 leukemia
DU-145 prostate = system: DU-145 prostate
BT-549 breast = system: BT-549 breast
ACHN renal = system: ACHN renal
OVCAR-5 ovarian = system: OVCAR-5 ovarian
HCT-15 colon = system: HCT-15 colon
NCI-H226 lung = system: NCI-H226 lung
UACC-257 melanoma = system: UACC-257 melanoma
HCC-2998 colon = system: HCC-2998 colon

Compound | TGI (A498 renal) [µM] | TGI (K-562 leukemia) [µM] | TGI (DU-145 prostate) [µM] | TGI (BT-549 breast) [µM] | TGI (ACHN renal) [µM] | TGI (OVCAR-5 ovarian) [µM] | TGI (HCT-15 colon) [µM] | TGI (NCI-H226 lung) [µM] | TGI (UACC-257 melanoma) [µM] | TGI (HCC-2998 colon) [µM]
O=C1C(CN2CCCC2)CCCC1CN1CCCC1 (stereo not given) | 38.7 | 2.27 | 34.2 | 3.62 | 3.42 | 13.2 | 4.54 | 59.1 | 4.39 | 34.3
CC(C)(C)OC(=O)NCCNC(=O)CN(CC(=O)O)C1CCCCC1N(CC(=O)O)CC(=O)O (stereo not given) | > 100 | > 100 | > 100 | > 100 | > 100 | > 100 | > 100 | > 100 | > 100 | > 100
OC1(c2ccc(Cl)cc2)c2ccccc2C2=NCc3ccccc3CN21 (stereo not given) | 30.2 | > 58 | 34.7 | 44.7 | 17.8 | 26 | 20 | 20.8 | 28.3 | 5.13
COC(=O)C(N)CCCC(N)C(=O)NC(C)C(=O)NC(CCC(=O)NCCCNc1ccc([N+](=O)[O-])c2[nH]c3ccccc3c(=O)c12)C(N)=O (stereo not given) | 30.7 | 22.6 | 19.1 | 25.7 | 16.2 | 22.7 | 15 | 27.9 | 23.2 | 21.8
O=C(CC(=O)Nc1ccccc1Cl)NNC(Sc1ccccc1)c1cc(N=Nc2ccc(Br)cc2)ccc1O (stereo not given) | 5.6 | 6.63 | > 10 | 5.99 | > 10 | > 10 | > 10 | 6.04 | > 10 | > 10
Cc1ccc(CC(=O)Nc2ccc(NC(=O)CNC(=O)/C=C/c3ccc(-c4ccccc4)cc3)cc2C(=O)c2ccccc2)cc1 | 8.73 | 10.3 | 7.54 | 24 | 16.2 | 23.1 | 13.2 | 8.39 | 22.7 | 4.98
O=C1CC(Cl)c2c(Cl)sc(Cl)c21 (stereo not given) | 27.3 | > 100 | 7.13 | 13.3 | 3.45 | 34.7 | 5.07 | 28.8 | 9.25 | 5.54
CN(/N=C/c1ccc(Cl)c(Cl)c1)C1=NCCN1 | 28.1 | > 100 | > 100 | 95.3 | > 100 | > 100 | > 100 | 72 | 45.2 | 75.2
CN1N(c2ccccc2)C(=O)C2=NC=C(C#N)C(=N)C21C (stereo not given) | > 100 | > 100 | > 100 | > 100 | > 100 | > 100 | > 100 | > 100 | > 100 | > 100
O=C1OC(C(O)C(O)C(O)CO)C(O)C1O (stereo not given) | > 100 | > 100 | > 100 | > 100 | > 100 | > 100 | > 100 | > 100 | > 100 | > 100
Cc1ccsc1/C=N/Nc1ccccn1 | > 100 | > 100 | > 100 | > 100 | > 100 | > 100 | > 100 | > 100 | > 100 | > 100
Cc1ccc(NC(=O)CC(=O)N2N=C(c3ccccc3)C(N=Nc3ccc(S(=O)(=O)CCOS(=O)(=O)O)cc3)C2=O)cc1 (stereo not given) | > 100 | > 100 | > 100 | > 100 | > 100 | > 100 | > 100 | > 100 | > 100 | > 100
c1ccc(-c2nc3ccccc3n3nnnc23)cc1 | > 100 | > 100 | > 100 | > 100 | > 100 | > 100 | > 100 | > 100 | > 100 | > 100
COc1cnnc2c(C)c(-c3ccccc3)nn12 | > 100 | > 100 | > 100 | > 100 | > 100 | > 100 | > 100 | > 100 | > 100 | > 100
CC(C)C(/C=C/c1ccccc1)=N\NC(=S)NN | > 100 | > 100 | > 100 | > 100 | > 100 | > 100 | > 100 | > 100 | > 100 | > 100
CN1CCN(c2c(O)c3c(c(O)c2Cl)C(=O)C=CC3=O)CC1 | 4.54 | 0.659 | 3.19 | 1.27 | 0.806 | 2.93 | 0.491 | 4.08 | 1.58 | 3.99

— PubChem BioAssay (NCI)
